The target in this test is α-glucosidase enzyme (Saccharomyces cerevisiae, UniProt P53341). Put plainly: Kinetic study against α-glucosidase. In kind it is biochemical, S. cerevisiae.

For one compound, Ki and inhibition mode results are on record in paper PMC10324058 (ACS Omega, 2023).

pKi: −log10 of the molar value.

α-glucosidase enzyme, sequence (P53341 whole entry): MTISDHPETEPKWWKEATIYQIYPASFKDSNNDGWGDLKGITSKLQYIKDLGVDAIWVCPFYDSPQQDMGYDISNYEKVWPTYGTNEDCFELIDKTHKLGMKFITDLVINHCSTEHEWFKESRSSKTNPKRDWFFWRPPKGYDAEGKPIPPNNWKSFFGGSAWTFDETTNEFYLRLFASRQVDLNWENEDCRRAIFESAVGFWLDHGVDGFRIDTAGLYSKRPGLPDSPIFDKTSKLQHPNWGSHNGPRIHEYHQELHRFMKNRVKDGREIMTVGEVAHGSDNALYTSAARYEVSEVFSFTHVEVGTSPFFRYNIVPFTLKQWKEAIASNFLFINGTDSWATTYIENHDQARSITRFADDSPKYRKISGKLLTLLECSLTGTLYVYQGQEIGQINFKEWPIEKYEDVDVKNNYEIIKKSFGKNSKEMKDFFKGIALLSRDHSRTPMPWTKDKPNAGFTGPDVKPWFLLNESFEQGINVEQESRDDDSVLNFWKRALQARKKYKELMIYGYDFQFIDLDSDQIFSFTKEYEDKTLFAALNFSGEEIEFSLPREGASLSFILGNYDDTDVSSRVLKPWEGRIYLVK

Take `N#CC1=C(N)Oc2c(c(=O)[nH]c3ccccc23)C1c1cccc(OCc2cn(Cc3ccccc3)nn2)c1` (centres unmarked) [8k, 2-Amino-4-(3-((1-benzyl-1H-1,2,3-triazol-4-yl)methoxy)phenyl)-5-oxo-5,6-dihydro-4H-pyrano[3,2-c]quinoline-3-carbonitrile]: the pKi is 5.89. For the same compound, for the setting “Lineweaver–Burk plot: Km increased, Vmax unchanged”, the inhibition mode result is on record as “competitive inhibitor”.

Broadly, the pKi is the negative decadic logarithm of the Ki, by convention in mol/L.
